Measured values taken from PMC12518634, “The noncanonical function of liver-type phosphofructokinase potentiates the efficacy of HDAC inhibitors in cancer” (Signal Transduction and Targeted Therapy, 2025).
Read-outs that look alike come from different tables or passages of the source.

Legend:
[1] = system: 1405R3; test: High-throughput drug screen, CellTiter-Glo viability, 72 h; format: cell-based, human; design: AUC: scale not given here; conditions: for EC50: fitted dose-response curve, Min.Conc.tested 1, Max.Conc.tested 10000, read-out: EC50
Description: (§1) The cells were seeded and incubated with a gradient of concentrations of drugs for 72 h, after which the cell viability was assessed (Supplementary Fig. 1a). The drug library primarily comprises epigenetic drugs, including HDAC inhibitors, DNA methyltransferase inhibitors, and histone demethylase inhibitors, as well as conventional chemotherapies and kinase inhibitors (Supplementary Fig. 1b and Supplementary Table 1). […] To identify novel therapeutics against CCA, we conducted a high-throughput screen employing PerkinElmer’s integrated robotic Explorer G3 workstations. […] Following dilution to five specified concentrations, drugs were dispensed into 96-well plates in the sequence detailed in Supplementary Fig. 1a. The CCA cell lines were subsequently plated in 384-well plates at a density of 3000 cells per well in a 20 μL total volume. After a 24-h incubation, the compounds were added to the wells and incubated for 72 h. We then quantified cell viability via the CellTiter-Glo luminescent assay according to the manufacturer’s protocol. Signal detection was carried out on a Synergy2 plate reader operated by Gen5 software (BioTek). For data processing, the raw luminescence data were processed through the Breeze pipeline for curve fitting, yielding quality control metrics (e.g., Z-factors) and drug response parameters (AUC and DSS), as adapted from previous work.[54] Drug responses were evaluated on the basis of the drug sensitivity score (DSS), and a cutoff of ≥10 was used to define efficacy. The complete drug library and screening dataset are available in Supplementary Tables 1-3.
(§2) Supplementary Fig. 1. A high-throughput drug screen to identify drugs targeting CCA. a Schematic representation of the drug screening protocol. […] Each drug was tested at five different concentrations (10, 1, 0.1, 0.01, and 0.001 μM), and each treatment was replicated twice. b Classification of drugs used for screening.

[2] = system: 783C-6; test: as above; format: cell-based, human; design: AUC: scale not given here; conditions: for EC50: read-out: EC50
Description: as §1, §2

[3] = 1405R3 DSRT analysis, area under the dose-response curve
[4] = 1405R3 DSRT analysis, lower asymptote of fitted dose-response curve
[5] = 783C-6 DSRT analysis, DSS calculated from the dose-response curve
[6] = 783C-6 DSRT analysis, MIN of the fitted dose-response curve
[7] = 783C-6 DSRT analysis, area under the dose-response curve
[8] = Homo sapiens, 1405R3 DSRT analysis, CellTiter-Glo, 72 h
[9] = 1405R3 DSRT analysis, slope of fitted dose-response curve
[10] = 783C-6 DSRT analysis, slope of the fitted dose-response curve
[11] = 1405R3 DSRT analysis, CellTiter-Glo, 72 h
[12] = 783C-6 DSRT analysis, CellTiter-Glo viability, 72 h, fitted dose-response curve, Min.Conc.tested 1, Max.Conc.tested 10000
[13] = 1405R3 DSRT analysis, drug sensitivity score
[14] = 783C-6 cells, DSS of DSRT analysis
[15] = 783C-6 cells, area under the dose-response curve
[16] = 783C-6 cells, minimum of dose-response curve
[17] = 783C-6 cells, slope of fitted dose-response curve

SMILES | DSS ([1]; 1405R3 DSRT analysis, DSS) | AUC [1, 3] | MIN [1, 4] | DSS [2, 5] | MIN [2, 6] | AUC [2, 7] | SLOPE [1, 9] | SLOPE [2, 10] | further results
c1ccc([C@@H]2C[C@H]2NC2CCNCC2)cc1 [GSK-LSD1 2HCl] | 0 |  |  |  |  |  |  |  | D1 [1]: 104.9; D2 [1]: 104.6; D3 [1]: 91.3; D4 [1]: 100.7; D5 [1]: 129.6; MAX [1]: 100; MIN [1]: 91.3; SLOPE [1]: -0.4; AUC ([1]; 72 h): 5.8; D1 [2]: 98.8; D2 [2]: 106.9; D3 [2]: 94.2; D4 [2]: 93.9; D5 [2]: 108.3; MAX [2]: 100; MIN [2]: 93.9; SLOPE [2]: -0.3; AUC ([2]; 72 h): 6; DSS ([2]; 72 h): 0
COc1cc2ncnc(Nc3ccc(F)c(Cl)c3)c2cc1OCCCN1CCOCC1 [Gefitinib] | 3.6 | 33.5 | 70.6 | 2.5 | 77.5 | 27 |  |  | 
Nc1ccn([C@@H]2O[C@H](CO)[C@@H](O)C2(F)F)c(=O)n1 [Gemcitabine] | 17.6 | 151.9 | 40 | 7.6 | 63.5 | 82.5 |  |  | EC50 [1, 8]: 26.1 nM; EC50 ([2]; Homo sapiens, 72 h): 40.1 nM
CCN(CC)Cc1ccc2cc(COC(=O)Nc3ccc(C(=O)NO)cc3)ccc2c1 [Givinostat] | 9.2 | 79.9 | 1.5 | 9.2 | 1.5 | 81.1 |  |  | EC50 [1, 8]: 1550 nM; EC50 ([2]; Homo sapiens, 72 h): 1520 nM
O=C(NO)c1ccc(CC(=O)N(CCO)c2ccccc2)cc1 [HPOB] | 0 | 0.1 | 100 | 0 | 98.7 | 0.4 | -0.1 | -1 | 
CCNC(=O)C[C@@H]1N=C(c2ccc(Cl)cc2)c2cc(OC)ccc2-n2c(C)nnc21 [I-BET-762] | 6 |  | 42 | 0 | 97 |  | -2.5 | -2.5 | 
O=C1[C@H](Cc2ccc(O)cc2)N2C(=O)CCN(C(=O)NCc3ccccc3)[C@H]2CN1Cc1cccc2ccccc12 [ICG-001] | 0 | 0.1 | 100 | 0 | 90.7 | 16.9 | -0.1 | -2.5 | 
C#Cc1cccc(Nc2ncnc3cc4c(cc23)OCCOCCOCCO4)c1 [Icotinib] | 1.4 | 21.6 | 84.3 | 0 | 90.4 | 16.8 |  |  | 
Clc1ccc(N/N=C(\c2ccccc2)c2ccccn2)nc1 [JIB-04] | 8.1 | 73.8 | 34.7 | 4.8 | 18.2 | 43.9 | -1.2 | -2.5 | EC50 [1, 11]: 766 nM; EC50 [2, 12]: 2960 nM
Cc1nn2c([nH]c(=O)c3cccnc32)c1C#N [KDM4D-IN-1] | 0 | 9.3 | 94 | 0 | 93.6 | 0.8 | -0.1 | -2.5 | 
Cc1cn(CCN2CCN(c3ccccc3-c3cc(C#N)cc(C(=O)NCCCN4CCCC4)c3)CC2)c2ccccc12 [LLY-507] | 5.5 | 49.7 | 1.8 | 3.9 | 23.1 | 36.6 |  |  | EC50 [1, 8]: 3190 nM; EC50 ([2]; Homo sapiens, 72 h): 3430 nM
Cc1cc(C)cc(C(=O)NOCCCCCC(=O)NO)c1 [LMK-235] | 11.6 | 101.6 | 2 | 9.8 | 3.5 | 84.5 | -1.7 | -2.5 | EC50 [1, 11]: 927 nM; EC50 [2, 12]: 1330 nM
CS(=O)(=O)CCNCc1ccc(-c2ccc3ncnc(Nc4ccc(OCc5cccc(F)c5)c(Cl)c4)c3c2)o1 [Lapatinib] | 0 | 0 | 99.9 | 0 | 93.5 | 2 |  |  | 
COc1cc2nccc(Oc3ccc(NC(=O)NC4CC4)c(Cl)c3)c2cc1C(N)=O [Lenvatinib] | 0 | 0.1 | 99.3 | 0 | 93.6 | 8.6 |  |  | 
Cc1ccc(F)c(NC(=O)Nc2ccc(-c3cccc4[nH]nc(N)c34)cc2)c1 [Linifanib] | 0 | 3.9 | 97.4 | 3.9 | 68.4 | 53 |  |  | EC50 ([2]; Homo sapiens, 72 h): 255 nM
Cn1c(/C=C/C(=O)NO)ccc1/C=C/C(=O)c1cccc(F)c1 [MC1568] | 0 | 2.6 | 94.6 | 0 | 98.4 | 0.2 | -0.6 | -2.5 | 
CCCCCCCc1ccc(CCc2cccc(O)c2C(=O)O)cc1 [MG149] | 0 | 18.5 | 85.7 | 0 | 87.6 | 3.7 | -0.2 | -1 | 
O=C(O)[C@]1(Cc2cccc(Nc3nccs3)n2)CC[C@@H](Oc2cccc(Cl)c2F)CC1 [MK-5108] | 0 | 0.5 | 98.2 | 4.3 | 74.1 | 61.3 |  |  | EC50 ([2]; Homo sapiens, 72 h): 22.8 nM
O=C(O)c1ccc(Nc2ncc3c(n2)-c2ccc(Cl)cc2C(c2c(F)cccc2F)=NC3)cc1 [MLN8054] | 0 | 6.8 | 90.2 | 0 | 70.8 | 8.8 |  |  | 
CCC(CC)(NC(=O)C(C)C)C(=O)N[C@@H](CCCN=C(N)N)C(=O)NC1(C(=O)NC(c2ccc(F)cc2)c2ccc(F)cc2)CCCC1 [MM-102] | 0 | 18.6 | 88.1 | 0 | 88.1 | 18.6 | -0.1 | -0.1 | 
CC(C)Oc1ccc(-c2c[nH]cc2CN(C)CCN)cc1 [MS023] |  | 7.3 | 75.6 |  |  |  |  |  | DSS [1, 13]: 0; DSS [2, 14]: 3.9; AUC [2, 15]: 57.8; MIN [2, 16]: 80.8
CNCCN1CCC(OCc2ccccc2)CC1 [MS049] |  | 20.8 | 86.6 |  |  |  | -0.1 |  | DSS [1, 13]: 0; DSS [2, 14]: 0; AUC [2, 15]: 4.9; MIN [2, 16]: 83.6; SLOPE [2, 17]: -1
Nc1ccccc1NC(=O)c1ccc(CNc2nccc(-c3cccnc3)n2)cc1 [Mocetinostat] |  | 100.5 | 1.1 |  |  |  |  |  | DSS [1, 13]: 11.8; EC50 ([1]; Homo sapiens, 1405R3 DSRT analysis, CellTiter-Glo viability, 72 h, GI50): 965 nM; DSS [2, 14]: 11.6; AUC [2, 15]: 98.8; MIN [2, 16]: 4.8; EC50 ([2]; Homo sapiens, 72 h): 917 nM
Cc1cc(-c2ccc3nc(C4CCOCC4)n(CCOC(F)(F)F)c3c2)cn(C)c1=O [NEO2734] |  | 130.5 | 8.1 |  |  |  | -0.9 |  | EC50 ([1]; 1405R3 DSRT analysis, CellTiter-Glo viability, 72 h, GI50): 407 nM; DSS [1, 13]: 14.3; EC50 ([2]; 783C-6 cells, DSRT analysis, CellTiter-Glo viability, 72 h, concentrations tested 1 to 10000 (unit inferred), GI50): 87.4 nM; DSS [2, 14]: 6.1; AUC [2, 15]: 72.8; MIN [2, 16]: 64.2; SLOPE [2, 17]: -0.3
CCCCN(Cc1ccc(C(=O)NO)cc1)C(=O)Nc1ccccc1 [Nexturastat A] |  | 0.7 | 93.8 |  |  |  |  |  | DSS [1, 13]: 0; DSS [2, 14]: 0; AUC [2, 15]: 4.3; MIN [2, 16]: 85.6
